{"source": "patent US9687445B2", "about": "“Oral film containing opiate enteric-release beads” (LTS Lohmann Therapie-Systeme AG, priority 2012, dated 2017)", "origin": "cited, not measured here"}
{"smiles": "C=CCN1CC[C@]23c4c5ccc(O)c4O[C@H]2C(=O)CC[C@@]3(O)[C@H]1C5", "note": "[naloxone]", "values": [{"measurement": "pKa", "value": "about 7.94"}]}
